Results: US20140080162A1, “FLUORESCENCE LIFETIME EPIGENETICS ASSAYS” (ALMAC SCIENCES (SCOTLAND) LIMITED, priority 2011, published 2014)
Where two headings read alike, the source gives them in different places. Residues, ends and D or L forms follow the SMILES beside them. *: point of attachment. Propanoyl(3-(9AA-2-yl)) = Nc1c2ccccc2nc2ccc(CCC(=O)*)cc12

What was measured:
Set7/9 [1] = biological target: T1, Set7/9 (Homo sapiens, UniProt Q8WTS6); assay: Set7/9 FLT protease protection assay; assay type: biochemical; details: for overall lifetime change between substrate and product / maximum range of the assay: Set7/9 time-course, 1 μM peptide
T1 construct: purchased BPS BioScience (via AMSBio, UK)
T1 sequence (Q8WTS6 1-366): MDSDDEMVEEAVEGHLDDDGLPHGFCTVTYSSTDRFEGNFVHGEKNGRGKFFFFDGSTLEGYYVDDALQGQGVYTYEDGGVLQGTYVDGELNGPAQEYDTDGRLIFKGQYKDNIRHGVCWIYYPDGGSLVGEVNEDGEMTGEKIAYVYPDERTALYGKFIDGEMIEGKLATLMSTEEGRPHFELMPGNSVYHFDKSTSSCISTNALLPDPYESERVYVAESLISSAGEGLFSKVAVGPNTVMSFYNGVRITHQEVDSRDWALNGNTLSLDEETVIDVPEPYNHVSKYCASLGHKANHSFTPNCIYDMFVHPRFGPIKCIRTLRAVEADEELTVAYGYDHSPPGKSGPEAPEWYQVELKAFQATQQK
Procedure: The assay was performed at room temperature and samples taken after 0 h, 2 h, and 6 h time intervals respectively.
10 μl of Endo-LysC (final concentration 2 nM) was added to each well and the plate incubated at room temperature for 15 mins before the FLTs were measured using a NanoTaurus plate reader. Peptide only controls were included at the same concentration for comparison.
Assays were performed in a 20 μl volume in a 384-well black microplate and contained peptide 12 (1 μM) and Set7/9 enzyme (100 nM, 50 nM, 25 nM, or 12.5 nM) in assay buffer. Reactions were stopped at regular intervals by the addition of 10 μl Endo-LysC (final concentration 2 nM). FLTs were measured following 15 min incubation with Endo-LysC at room temperature. All measurements were performed in duplicate using a NanoTaurus plate reader.
The dependence of the Set7/9 assay on SAM co-factor was investigated using peptide 13 as the substrate. The assay was performed in a 384-well microplate at room temperature for 2 h in assay buffer (20 μl) using 25 nM Set7/9 and 1 μM substrate. SAM concentrations were varied from 100 μM-1.7 nM. On completion, Endo-LysC (2 nM) was added to each well and FLTs measured following a 20 min incubation period.
(§2) Reactions were performed in a 384-well microplate at room temperature for 2 h and stopped by the addition of Endo-LysC (2 nM).
Alternatively, assays were performed in a 384-well microplate at room temperature with an assay volume of 20 μl per well. To wells containing recombinant Set7/9 enzyme and peptide 12 or 13 in assay buffer (10 μl) was added SAM (10 μl) in assay buffer. Controls containing peptide only were also included. The plate was shaken and then sealed with a coverslip. The final concentration of Set7/9 in the assay varied between 100 nM and 12.5 nM whilst the concentration of peptide and SAM were kept constant at 1 μM and 100 μM respectively. Assays were started at different times and stopped together after 120 min by the addition of Endo-LysC (10 μl in assay buffer; final concentration 2 nM). Following incubation at room temperature for 15 min, the microplate was centrifuged at 500 rpm for 1 min and FLTs measured. All measurements were performed in duplicate.
For inhibitor titrations, compounds (5 μl) were preincubated with Set7/9 and peptide 13 (5 μl) for 10 min at room temperature prior to addition of SAM (10 μl). Controls containing no SAM or no inhibitor were included.

Set7/9 [2] = biological target: T1, Set7/9; details: literature (Gauthier et al. 2012), lower concentration of SAM; read-out: reported IC50; cited from earlier work
G9a = biological target: T2, G9a (Homo sapiens, UniProt Q96KQ7); assay: G9a FLT protease protection assay; assay type: biochemical; details: for G9a concentration sufficient to confer complete protease protection: G9a (Abcam), 2 nM Endo-LysC
T2 construct: purchased Millipore; Abcam; BPS Bioscience (via AMSBio)
T2 sequence (Q96KQ7 1-1210): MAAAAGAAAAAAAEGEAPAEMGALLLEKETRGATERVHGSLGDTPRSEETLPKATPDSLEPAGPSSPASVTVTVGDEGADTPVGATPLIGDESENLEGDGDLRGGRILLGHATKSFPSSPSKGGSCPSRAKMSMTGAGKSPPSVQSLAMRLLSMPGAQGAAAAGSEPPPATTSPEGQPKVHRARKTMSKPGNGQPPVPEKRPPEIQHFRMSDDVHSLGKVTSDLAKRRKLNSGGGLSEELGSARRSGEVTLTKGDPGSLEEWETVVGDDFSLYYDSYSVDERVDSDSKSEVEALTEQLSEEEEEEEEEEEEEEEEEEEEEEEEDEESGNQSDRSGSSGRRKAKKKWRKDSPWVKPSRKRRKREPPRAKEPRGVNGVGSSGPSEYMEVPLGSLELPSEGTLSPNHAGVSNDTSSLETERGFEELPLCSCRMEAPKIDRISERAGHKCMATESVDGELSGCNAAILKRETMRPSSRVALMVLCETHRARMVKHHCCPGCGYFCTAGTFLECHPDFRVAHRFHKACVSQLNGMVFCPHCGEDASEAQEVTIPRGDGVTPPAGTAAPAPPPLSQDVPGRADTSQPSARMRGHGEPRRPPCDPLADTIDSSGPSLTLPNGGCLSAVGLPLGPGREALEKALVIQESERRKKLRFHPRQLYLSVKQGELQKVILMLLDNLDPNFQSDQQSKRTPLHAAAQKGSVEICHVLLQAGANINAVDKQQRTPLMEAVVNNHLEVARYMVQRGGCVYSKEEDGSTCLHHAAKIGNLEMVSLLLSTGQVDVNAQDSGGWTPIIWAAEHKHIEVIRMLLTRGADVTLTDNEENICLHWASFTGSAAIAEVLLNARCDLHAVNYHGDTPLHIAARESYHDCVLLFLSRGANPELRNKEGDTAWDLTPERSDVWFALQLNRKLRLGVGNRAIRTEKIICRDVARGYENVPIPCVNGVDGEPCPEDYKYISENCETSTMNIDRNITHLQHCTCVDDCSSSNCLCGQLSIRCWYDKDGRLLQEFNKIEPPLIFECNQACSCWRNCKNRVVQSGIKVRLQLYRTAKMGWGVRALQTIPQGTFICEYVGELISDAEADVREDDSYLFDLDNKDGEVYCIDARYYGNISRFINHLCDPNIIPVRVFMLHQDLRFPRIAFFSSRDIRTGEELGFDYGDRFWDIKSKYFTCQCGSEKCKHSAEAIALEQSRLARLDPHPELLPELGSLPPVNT
Procedure: Assays were performed at room temperature for 2 h and then FLTs measured using a NanoTaurus plate reader (Edinburgh Instruments Ltd.). Each well was then treated with 2 nM protease (Endo-LysC) (10 μl) and the plate incubated at room temperature for 60 min. The FLTs were then re-measured. Controls were included containing no G9a or no protease.
Peptides 4 and 9 were incubated with SAM (100 μM) and varying concentrations of G9a (Abcam) in 20 μl of assay buffer in a 384-well black microplate (Greiner). The assays were performed at room temperature for 2 h after which FLTs were measured as previously described. 2 nM Endo-LysC (10 μl per well) was then added and FLTs re-measured following 10 min and 60 min incubation with the protease.
The dependence of the G9a assay on SAM was investigated using both peptide 4 and 9 as substrates. Assays were performed in a 384-well microplate in assay buffer (20 μl) using either 25 nM or 10 nM G9a and 1 μM substrate. SAM concentrations were varied from 200 μM-0.4 μM and assays were incubated for 2 h at room temperature. On completion, Endo-LysC (2 nM) was added to each well and FLTs measured following a 10 min incubation period.
as §2
Alternatively, assays were performed in a 384-well microplate at room temperature with an assay volume of 20 μl per well. To wells containing recombinant G9a enzyme in assay buffer (5 μl) was added peptide in assay buffer (10 μl). Reactions were started by the addition of SAM (5 μl). The plate was shaken and then sealed with a coverslip. […] The concentration of peptide was kept constant at 1 μM. Assays were started at different times and stopped together after 2 h by the addition of Endo-LysC (10 μl in assay buffer; final concentration 2 nM). Following incubation at room temperature for 10 min, the microplate was centrifuged at 500 rpm for 1 min and FLTs measured.
For inhibitor titrations, compounds (5 μl) were preincubated with G9a (5 μl) for 30 min at room temperature prior to addition of peptide (5 μl) and SAM (5 μl). Controls containing no SAM or no inhibitor were included.

PAD2 = biological target: T3, PAD2 (Homo sapiens, UniProt Q9Y2J8); assay: PAD2 FLT protease protection assay; assay type: biochemical; details: 15 μM peptide, 30 nM PAD2, diluted to 1 μM; 10 nM trypsin 10 min
T3 construct: purchased Modiquest Research
T3 sequence (Q9Y2J8 whole entry): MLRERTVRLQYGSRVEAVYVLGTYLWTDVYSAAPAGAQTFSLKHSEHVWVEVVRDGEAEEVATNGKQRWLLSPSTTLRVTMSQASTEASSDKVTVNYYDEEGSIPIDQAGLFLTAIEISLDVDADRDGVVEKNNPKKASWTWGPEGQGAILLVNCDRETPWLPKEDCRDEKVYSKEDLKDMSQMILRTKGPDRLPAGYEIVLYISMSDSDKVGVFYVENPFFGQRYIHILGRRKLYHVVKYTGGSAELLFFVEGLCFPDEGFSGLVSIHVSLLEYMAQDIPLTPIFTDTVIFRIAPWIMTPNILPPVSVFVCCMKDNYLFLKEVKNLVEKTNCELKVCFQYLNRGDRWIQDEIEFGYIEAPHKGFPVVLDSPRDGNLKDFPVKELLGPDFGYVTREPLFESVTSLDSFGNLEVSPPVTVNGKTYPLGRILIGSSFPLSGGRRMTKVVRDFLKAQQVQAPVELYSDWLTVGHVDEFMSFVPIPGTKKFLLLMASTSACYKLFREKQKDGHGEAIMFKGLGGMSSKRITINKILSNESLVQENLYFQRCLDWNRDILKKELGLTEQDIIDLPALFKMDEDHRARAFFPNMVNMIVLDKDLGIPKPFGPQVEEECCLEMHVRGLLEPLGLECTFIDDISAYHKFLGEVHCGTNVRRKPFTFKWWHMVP
Procedure: Accordingly, peptide 1 (15 μM) was incubated with PAD2 (30 nM) in assay buffer (20 mM Tris pH 8, 200 μM CaCl2, 5 mM DTT, 0.01% CHAPS) (300 μl) and aliquots taken at regular time intervals and analysed by RP-HPLC. The assays were performed at room temperature and samples taken at 0 min, 30 min, and 120 min time intervals
In order to test if citrullination of peptide 1 by PAD2 had conferred protection against trypsin, the assay mixture was diluted to 1 μM concentration with assay buffer and 20 μl added to three wells of a 384-well black microplate. 10 μl of trypsin (final concentration 10 nM) was added to each well and the plate incubated at room temperature for 10 mins before the fluorescence lifetimes (FLTs) were measured using the NanoTaurus plate reader as described in the Experimental section. Peptide only controls were included at the same concentration for comparison.
For HPLC monitoring, assays were performed at room temperature in micro-centrifuge tubes with a total assay volume of 300 μl. Reactions were started by addition of peptide 1 to solutions containing recombinant PAD2 enzyme. […]
(§1) Where citrullination of the peptide substrate was confirmed, the assay mixtures were diluted 15-fold with assay buffer and transferred to a 384-well microplate (20 μl per well) and FLTs measured. […] FLTs were then re-measured. […]

PAD4 = biological target: T4, PAD4 (Homo sapiens, UniProt Q9UM07); assay: PAD4 FLT protease protection assay; assay type: biochemical; details: 15 μM peptide, 30 nM PAD4, diluted to 1 μM; 10 nM trypsin 10 min
T4 construct: purchased Origene (via Insight Biotechnology)
T4 sequence (Q9UM07 whole entry): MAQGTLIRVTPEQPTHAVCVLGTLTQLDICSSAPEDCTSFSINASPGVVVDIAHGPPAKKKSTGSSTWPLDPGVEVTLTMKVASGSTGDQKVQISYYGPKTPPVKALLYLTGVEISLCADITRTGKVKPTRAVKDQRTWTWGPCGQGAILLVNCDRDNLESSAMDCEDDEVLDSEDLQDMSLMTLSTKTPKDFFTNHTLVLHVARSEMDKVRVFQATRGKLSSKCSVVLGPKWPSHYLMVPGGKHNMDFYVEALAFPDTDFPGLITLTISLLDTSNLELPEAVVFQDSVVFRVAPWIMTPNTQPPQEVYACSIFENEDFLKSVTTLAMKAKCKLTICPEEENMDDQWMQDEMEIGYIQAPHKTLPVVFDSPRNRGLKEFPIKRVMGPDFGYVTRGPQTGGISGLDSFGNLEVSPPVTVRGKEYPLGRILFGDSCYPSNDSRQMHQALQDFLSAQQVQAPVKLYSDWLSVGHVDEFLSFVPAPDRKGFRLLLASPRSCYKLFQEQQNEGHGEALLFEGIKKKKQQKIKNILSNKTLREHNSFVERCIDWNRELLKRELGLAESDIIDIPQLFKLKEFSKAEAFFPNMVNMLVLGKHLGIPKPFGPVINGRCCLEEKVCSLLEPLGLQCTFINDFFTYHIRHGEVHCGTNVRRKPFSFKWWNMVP
Procedure: With a suitable HPLC method in hand, PAD4 assays were set up for each of the peptide substrates and aliquots taken at regular time intervals with product formation monitored by RP-HPLC. Each assay was performed in a micro-centrifuge tube containing 15 μM peptide and 30 nM PAD4 (Origene) in assay buffer (300 μl). The assays were performed at room temperature and samples taken at 0 min, 30 min, and 60 min time intervals.
In order to test if citrullination of peptides 1 and 3 by PAD4 had conferred protection against trypsin, the assay mixtures for these peptides (described above) were diluted to 1 μM concentration with assay buffer and 20 μl of each added to three wells of a 384-well black microplate. The FLTs were measured using the NanoTaurus plate reader as described previously. 10 μl of trypsin (final concentration 10 nM) was then added to each well and the plate incubated at room temperature for 10 mins before the FLTs were re-measured. Peptide only controls were included at the same concentration for comparison.
The dependence of the PAD4 assay on peptide substrate concentration was investigated. […] From FIG. 73, a KM of 180 nM was determined for substrate 1. […]
as §1

PRMT5 = biological target: T5, PRMT5 (Homo sapiens, UniProt O14744); assay: PRMT5 FLT protease protection assay; assay type: biochemical
T5 construct: purchased BPS BioScience (via AMSBio, UK)
T5 sequence (O14744 whole entry): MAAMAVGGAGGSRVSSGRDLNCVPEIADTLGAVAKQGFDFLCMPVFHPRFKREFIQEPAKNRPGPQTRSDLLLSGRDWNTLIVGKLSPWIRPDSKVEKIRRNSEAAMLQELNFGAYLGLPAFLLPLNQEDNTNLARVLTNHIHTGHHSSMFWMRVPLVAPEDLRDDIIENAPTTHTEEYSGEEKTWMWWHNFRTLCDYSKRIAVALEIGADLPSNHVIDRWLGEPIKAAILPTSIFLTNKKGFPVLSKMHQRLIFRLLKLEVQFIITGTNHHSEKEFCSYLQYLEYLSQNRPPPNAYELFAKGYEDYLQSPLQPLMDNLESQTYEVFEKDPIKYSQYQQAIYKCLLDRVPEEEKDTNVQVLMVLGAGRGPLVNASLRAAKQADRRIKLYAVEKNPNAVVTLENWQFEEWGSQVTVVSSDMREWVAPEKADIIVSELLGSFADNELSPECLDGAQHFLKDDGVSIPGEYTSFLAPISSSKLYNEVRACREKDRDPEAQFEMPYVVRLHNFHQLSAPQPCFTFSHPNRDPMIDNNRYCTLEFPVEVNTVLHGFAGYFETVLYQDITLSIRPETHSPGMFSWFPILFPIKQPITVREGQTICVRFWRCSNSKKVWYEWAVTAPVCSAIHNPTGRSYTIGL
Procedure: The assay was performed at room temperature and samples taken after 0 h, 3.5 h, and 17.5 h time intervals respectively.
10 μl of Endo-ArgC (final concentration 10 nM) was added to each well and the plate incubated at room temperature for 60 mins before FLTs were measured. Peptide only controls were included at the same concentration for comparison.
Conditions were as follows: sinefungin (2 mM-0.1 μM), PRMT5 (50 nM), SAM (10 μM) and peptide 15 (1 μM) in assay buffer (20 μl). Reactions were performed in triplicate in a 384-well microplate at room temperature for 3 h and stopped by the addition of Endo-ArgC (1 nM).
Endo-ArgC (10 μl in assay buffer) was then added to each well and the plate incubated at room temperature for 15 mins. FLTs were then re-measured. All measurements were performed in triplicate and the final concentration of Endo-ArgC in the wells was 10 nM.
For inhibitor titrations, compounds (5 μl) were preincubated with PRMT5/peptide 15 (5 μl) for 30 min at room temperature prior to the addition of SAM (5 μl). Assays were run for 3 h at room temperature and stopped by the addition of 10 μl Endo-ArgC. FLTs were measured following a 1 h incubation at room temperature. Controls containing no PRMT5 or no inhibitor were also included. All measurements were performed in triplicate.

[3] = biological target: T6, EZH2/EED/SUZ12/RbAp48/AEBP2 complex (Homo sapiens, UniProt Q15910); details: read-out: KM for SAM, literature value; literature (Sneeringer et al. 2010), radiometric assay format; cited from earlier work
T6 sequence (Q15910 whole entry): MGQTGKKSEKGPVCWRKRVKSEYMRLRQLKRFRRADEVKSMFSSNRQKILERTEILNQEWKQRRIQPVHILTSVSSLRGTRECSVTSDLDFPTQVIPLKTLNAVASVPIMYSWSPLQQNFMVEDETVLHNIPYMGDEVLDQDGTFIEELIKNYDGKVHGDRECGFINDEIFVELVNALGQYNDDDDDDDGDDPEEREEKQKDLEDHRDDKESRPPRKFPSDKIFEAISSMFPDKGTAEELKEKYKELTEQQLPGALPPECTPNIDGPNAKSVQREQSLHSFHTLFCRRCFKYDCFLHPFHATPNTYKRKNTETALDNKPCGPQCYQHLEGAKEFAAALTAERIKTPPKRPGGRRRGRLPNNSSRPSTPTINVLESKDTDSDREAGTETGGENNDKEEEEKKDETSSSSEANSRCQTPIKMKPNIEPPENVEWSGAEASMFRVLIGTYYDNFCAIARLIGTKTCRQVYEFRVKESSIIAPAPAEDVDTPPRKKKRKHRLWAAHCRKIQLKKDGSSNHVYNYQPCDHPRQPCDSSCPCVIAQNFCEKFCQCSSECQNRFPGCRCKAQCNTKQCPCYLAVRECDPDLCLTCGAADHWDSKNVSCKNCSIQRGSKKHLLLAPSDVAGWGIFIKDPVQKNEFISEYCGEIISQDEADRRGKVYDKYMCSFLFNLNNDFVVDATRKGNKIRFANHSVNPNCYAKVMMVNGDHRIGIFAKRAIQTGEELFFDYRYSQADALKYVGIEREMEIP
T6 sequence (O75530 whole entry partner): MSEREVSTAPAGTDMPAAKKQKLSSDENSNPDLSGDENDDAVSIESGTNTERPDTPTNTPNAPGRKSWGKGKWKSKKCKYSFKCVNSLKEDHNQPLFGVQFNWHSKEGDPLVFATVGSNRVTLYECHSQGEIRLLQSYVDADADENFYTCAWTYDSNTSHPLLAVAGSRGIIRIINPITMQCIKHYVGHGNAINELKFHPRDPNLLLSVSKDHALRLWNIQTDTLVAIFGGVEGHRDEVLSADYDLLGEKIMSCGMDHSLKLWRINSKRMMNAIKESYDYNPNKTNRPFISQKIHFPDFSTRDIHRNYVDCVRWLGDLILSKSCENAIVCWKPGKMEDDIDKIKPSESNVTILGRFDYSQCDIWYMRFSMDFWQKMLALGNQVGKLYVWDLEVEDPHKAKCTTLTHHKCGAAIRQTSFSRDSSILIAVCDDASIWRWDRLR
T6 sequence (Q15022 whole entry partner): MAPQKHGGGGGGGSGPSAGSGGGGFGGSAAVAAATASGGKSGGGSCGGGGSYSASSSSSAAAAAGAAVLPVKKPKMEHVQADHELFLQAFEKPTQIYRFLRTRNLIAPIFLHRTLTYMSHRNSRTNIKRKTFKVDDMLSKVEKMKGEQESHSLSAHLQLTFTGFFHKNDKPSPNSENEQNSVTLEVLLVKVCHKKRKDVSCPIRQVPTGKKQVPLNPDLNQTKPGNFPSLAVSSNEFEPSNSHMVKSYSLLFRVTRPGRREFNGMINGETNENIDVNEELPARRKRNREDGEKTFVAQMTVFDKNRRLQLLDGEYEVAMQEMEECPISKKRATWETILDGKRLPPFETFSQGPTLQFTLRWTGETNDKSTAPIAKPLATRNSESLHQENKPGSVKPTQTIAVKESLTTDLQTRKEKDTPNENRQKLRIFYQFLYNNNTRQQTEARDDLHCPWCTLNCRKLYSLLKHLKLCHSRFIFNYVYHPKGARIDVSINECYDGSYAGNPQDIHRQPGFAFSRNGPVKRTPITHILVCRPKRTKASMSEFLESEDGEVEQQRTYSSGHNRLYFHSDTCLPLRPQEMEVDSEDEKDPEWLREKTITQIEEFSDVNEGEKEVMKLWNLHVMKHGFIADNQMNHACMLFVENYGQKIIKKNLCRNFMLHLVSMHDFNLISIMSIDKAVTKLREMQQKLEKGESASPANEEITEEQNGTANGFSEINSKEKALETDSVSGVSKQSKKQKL
T6 sequence (Q09028 whole entry partner): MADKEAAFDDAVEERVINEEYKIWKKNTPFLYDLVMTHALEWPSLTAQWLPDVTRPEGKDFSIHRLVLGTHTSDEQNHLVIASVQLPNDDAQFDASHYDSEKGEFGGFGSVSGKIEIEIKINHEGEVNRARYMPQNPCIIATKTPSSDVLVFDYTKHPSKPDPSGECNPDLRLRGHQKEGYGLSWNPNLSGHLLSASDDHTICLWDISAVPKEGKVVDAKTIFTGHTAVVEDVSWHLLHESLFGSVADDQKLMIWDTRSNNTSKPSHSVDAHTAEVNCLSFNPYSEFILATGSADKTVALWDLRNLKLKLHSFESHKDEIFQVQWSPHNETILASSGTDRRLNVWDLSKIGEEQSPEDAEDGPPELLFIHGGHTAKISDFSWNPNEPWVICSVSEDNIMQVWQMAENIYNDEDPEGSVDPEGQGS
T6 sequence (Q6ZN18 whole entry partner): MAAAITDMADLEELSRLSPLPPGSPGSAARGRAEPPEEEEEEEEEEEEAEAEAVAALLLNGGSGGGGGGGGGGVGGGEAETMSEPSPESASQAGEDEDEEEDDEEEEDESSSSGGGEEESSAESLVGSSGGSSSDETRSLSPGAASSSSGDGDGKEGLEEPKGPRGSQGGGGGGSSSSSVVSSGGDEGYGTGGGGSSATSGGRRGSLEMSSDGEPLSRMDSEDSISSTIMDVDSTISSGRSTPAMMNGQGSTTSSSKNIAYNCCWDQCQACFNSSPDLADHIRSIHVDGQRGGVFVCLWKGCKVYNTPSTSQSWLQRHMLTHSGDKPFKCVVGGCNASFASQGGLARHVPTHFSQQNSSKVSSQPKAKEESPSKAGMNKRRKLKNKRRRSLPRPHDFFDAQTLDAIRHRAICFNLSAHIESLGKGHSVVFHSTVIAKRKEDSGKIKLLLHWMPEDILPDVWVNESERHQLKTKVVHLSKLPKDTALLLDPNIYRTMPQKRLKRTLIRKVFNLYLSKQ

[4] = biological target: T6, EZH2/EED/SUZ12/RbAp48/AEBP2 complex; details: read-out: KM (app) for SAM; peptide 20 (1 μM), 100 ng/well EZH2 complex, 5 h
Procedure: The dependence of the EZH2 assay on SAM co-factor was investigated using peptide 20 as the substrate. The assay was performed in a 384-well hi-base microplate at room temperature for 5 h in assay buffer (10 μl) using 100 ng/well EZH2 complex and 1 μM substrate. SAM concentrations were varied from 100 μM-0.05 μM. On completion, Endo-LysC (4 nM) was added to each well and FLTs measured following a 15 min incubation period. The data was fitted to a variable slope dose-response model in Graph Pad Prism to determine the KM (app) for SAM.
For SAM titrations, to wells containing varying concentrations of SAM in assay buffer (2.5 μl) was added EZH2 complex in assay buffer (2.5 μl). Reactions were initiated by the addition of peptide 20 in assay buffer (5 μl). The plate was incubated at room temperature for 5 h and then 10 μl of Endo-LysC in assay buffer was added to each well. Following a further 15 min incubation at room temperature, FLTs were measured. All measurements were performed in triplicate.

## Nc1ncnc2c1ncn2[C@@H]1O[C@H](CSCC[C@H](N)C(=O)O)[C@@H](O)[C@H]1O [SAH, S-adenosylhomocysteine, reference compound]
Set7/9 [1]; peptide 13 (1 μM), Set7/9 50 nM, SAM 500 nM, 2 h
  IC50: 37 µM
Set7/9 [2]
  IC50: 16 µM

## 9AA-TARK^9STGW-CONH2 [peptide 4]
G9a; SAM 100 μM, 2 h
  G9a concentration sufficient to confer complete protease protection: 50 nM

## C[C@@H](O)[C@H](NC(=O)[C@H](CO)NC(=O)[C@H](CCC(N)=O)NC(=O)CCc1ccc2nc3ccccc3c(N)c2c1)C(=O)N[C@@H](CCCNC(=N)N)C(=O)NCC(=O)N[C@@H](CO)C(=O)NCC(=O)N[C@@H](Cc1c[nH]cn1)C(=O)N[C@@H](Cc1c[nH]c2ccccc12)C(=O)N[C@@H](CCCCN)C(=O)N[C@@H](CCCCN)C(N)=O [peptide 1] ({Propanoyl(3-(9AA-2-yl))}-QSTRGSGHWKK-NH2)
PAD2
  increase in FLT after trypsin for peptide exposed to PAD2: no increase in FLT
PAD4
  increase in FLT after trypsin for peptide exposed to PAD4: no increase in FLT

## Ac-WSGRGKGGK(9AA)GLGKGGAKRHRK-CONH2 [peptide 15]
PRMT5; 150 nM PRMT5, 100 μM SAM, reaction not complete, 10 nM Endo-ArgC 60 min
  increase in FLT after Endo-ArgC for peptide exposed to PRMT5: 4.7 ns

## Nc1ncnc2c1ncn2[C@@H]1O[C@H](C[C@@H](N)CC[C@H](N)C(=O)O)[C@@H](O)[C@H]1O [sinefungin, reference compound]
PRMT5; peptide 15 (1 μM), PRMT5 50 nM, SAM 10 μM, 3 h
  IC50: 13 µM

## C[C@@H](O)[C@H](NC(=O)[C@H](CO)NC(=O)[C@H](CCC(N)=O)NC(=O)[C@H](Cc1c[nH]cn1)NC(=O)[C@@H](N)CCCCNC(=O)CCc1ccc2nc3ccccc3c(N)c2c1)C(=O)N[C@@H](CCCNC(=N)N)C(=O)NCC(=O)N[C@@H](CO)C(=O)NCC(=O)N[C@@H](Cc1c[nH]cn1)C(=O)N[C@@H](Cc1c[nH]c2ccccc12)C(=O)N[C@@H](CCCCN)C(=O)N[C@@H](CCCCN)C(N)=O [peptide 3] (H-K(Propanoyl(3-(9AA-2-yl)))HQSTRGSGHWKK-NH2; N-terminus assumed)
PAD4
  increase in FLT after trypsin for peptide exposed to PAD4: no increase in FLT

## WARTKQTARK(9AA)STGGKAPRKQLAK-CONH2 [peptide 12]
Set7/9 [1]; 15 μM peptide, 172 nM Set7/9, 100 μM SAM, diluted to 1 μM, 2 nM Endo-LysC 15 min
  increase in FLT after Endo-LysC for peptide exposed to Set7/9: no significant increase in FLT
Set7/9 [1]; 2 nM Endo-LysC 15 min
  overall lifetime change between substrate and product / maximum range of the assay: approximately 2.4 ns

## C[S+](CC[C@H](N)C(=O)[O-])C[C@H]1O[C@@H](n2cnc3c(N)ncnc32)[C@H](O)[C@@H]1O (some centres unmarked) [SAM, S-adenosylmethionine, reference compound]
[3]
  Km: 0.21 to 0.3 µM
Set7/9 [1]; peptide 13 as substrate (1 μM), 25 nM Set7/9, 2 h, read-out: Km (app) for SAM
  Km: 0.5 µM
[4]
  Km: 0.71 µM
G9a; peptides 4 and 9 as substrates (1 μM), 25 nM or 10 nM G9a, 2 h room temperature, read-out: Km (app) for SAM
  Km: 3 to 11 µM

## WRTKQTARK(9AA)STGGKAPRKQLAK-CONH2 [peptide 13]
Set7/9 [1]; 2 nM Endo-LysC 15 min
  overall lifetime change between substrate and product / maximum range of the assay: 4 ns

## K(9AA)ARTK(Me)QTARK^9STGGW-CONH2 [peptide 9]
G9a; SAM 100 μM, 2 h
  G9a concentration sufficient to confer complete protease protection: 50 nM
G9a; G9a (Millipore) 500 nM, SAM 100 μM, 2 h, 2 nM Endo-LysC 60 min
  protease protection after G9a treatment: complete protease protection
